Measured values: patent publication US5070210A, “Novel ketenimines as intermediates for insecticides” (ICI Americas Inc., priority 1990, dated 1991)

Columns and labels:
Format in all cases: in vivo
[1] = test system: Housefly [Musca domestica]; assay: Housefly insecticidal test; conditions: μg per 25 female flies; mortality after 48 hours
In short: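 Residual contact test: acetone dilution, 0.01% peanut oil spreader, solvent evaporated; 25 ♀ flies (1-2 d old) per cage; sugar-water plug; 48 h mortality read. LC50 in μg/25 female flies, from dose-mortality curves; top dose 100 μg/25 flies.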

[2] = test system: Tobacco Budworm [Heliothis virescens (Fabricius)] eggs; assay: Tobacco budworm egg test; conditions: 2-day old eggs, percent in solution
In short: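 Paper-towel patches of 2-day-old eggs dipped in acetone solutions of compound (0.1% downward), held on larval rearing medium at 78° F. Mortality scored once all control eggs had hatched and larvae were feeding; LC50 from dosage-mortality curves, expressed as percent compound in solution.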

[3] = test system: Maize weevil [Sitophilus Zeamais (Motschulsky)]; assay: Maize weevil insecticidal test; conditions: adult weevils, percent in solution; 48 hours
Experimental: The compounds in Tables 1 and 2 above were tested for insecticidal activity using the following testing procedures. LC50 values, based on the results of these tests and calculated according to dosage-mortality curves, are expressed in Table 3.
Maize weevil [Sitophilus Zeamais (Motschulsky)]:
Test compounds were diluted in a 50:50 acetone:water solution. Four corn seeds [Zea mays (L.)] which had been immersed in test solutions for 2-3 seconds and allowed to dry were placed in containers together with 10 adult weevils. The containers were covered and kept at a temperature of about 25° C. Mortality was recorded after 48 hours. Test concentrations ranged from 0.01% down to that at which 50% mortalilty occurred. The LC50 values are expressed below in Table 3 under the heading "MW" in terms of percent of the test compound in solution.

[4] = test system: Cabbage Looper [Trichoplusia ni (Hubner)]; assay: Cabbage looper insecticidal test; conditions: second-instar larvae, percent in solution; 3-5 days
In short: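 Squash cotyledons dipped 2-3 s in compound in 50-50 acetone-water, dried, then infested with 5 second-instar larvae and held at high humidity. Mortality scored after 3-5 days at concentrations from 0.1% downward. LC50 from dosage-mortality curves, expressed as percent compound in solution.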

## CC(C)C(=Nc1ccc(OCC(F)(F)F)c(Cl)c1)OCc1cccc(Oc2ccc(Cl)cc2)c1 [Compound 421]
[1]
  LC50, HF: > 100 µg
[2]
  LC50, TBW, E (TBW-E): < 0.1%
[3]
  LC50, MW: > 0.01%
[4]
  LC50, CL: 0.002%

## CC(C)C(=Nc1ccc(OCC(F)(F)F)cc1)OCc1ccc(F)c(Oc2ccccc2)c1 [Compound 422]
[1]
  LC50, HF: < 100 µg
[2]
  LC50, TBW, E (TBW-E): 0.05%
[3]
  LC50, MW: > 0.01%
[4]
  LC50, CL: 0.00075%

## CC(C)C(=Nc1ccc(OCC(F)(F)F)cc1)OCc1cccc(Oc2ccccc2)c1 [Compound 423]
[1]
  LC50, HF: > 100 µg
[2]
  LC50, TBW, E (TBW-E): > 0.1%
[3]
  LC50, MW: > 0.01%
[4]
  LC50, CL: 0.002%

## CC(C)C(=Nc1ccc(OCC(F)(F)F)c(Cl)c1)OCc1ccc(F)c(Oc2ccccc2)c1 [Compound 424]
[1]
  LC50, HF: > 100 µg
[2]
  LC50, TBW, E (TBW-E): 0.035%
[3]
  LC50, MW: > 0.01%
[4]
  LC50, CL: 0.00038%

## CC(C)C(=Nc1ccc(OCC(F)(F)F)c(Cl)c1)OCc1cccc(Oc2ccccc2)c1 [Compound 425]
[1]
  LC50, HF: > 100 µg
[2]
  LC50, TBW, E (TBW-E): > 0.1%
[3]
  LC50, MW: > 0.01%
[4]
  LC50, CL: 0.00075%

## CCOc1cccc(N=C(OCc2ccc(F)c(Oc3ccc(F)cc3)c2)C(C)C)c1 [Compound 426]
[1]
  LC50, HF: > 100 µg
[2]
  LC50, TBW, E (TBW-E): > 0.1%
[3]
  LC50, MW: > 0.01%
[4]
  LC50, CL: 0.002%

## CC(C)C(=Nc1ccc(C(F)(F)F)cc1Cl)OCc1cccc(Oc2ccc(F)cc2)c1 [Compound 427]
[1]
  LC50, HF: > 100 µg
[2]
  LC50, TBW, E (TBW-E): > 0.1%
[3]
  LC50, MW: > 0.01%
[4]
  LC50, CL: < 0.1%

## CC(C)C(=Nc1ccc(C(F)(F)F)cc1Cl)OCc1ccc(F)c(Oc2ccccc2)c1 [Compound 428]
[1]
  LC50, HF: > 100 µg
[2]
  LC50, TBW, E (TBW-E): > 0.1%
[3]
  LC50, MW: > 0.01%
[4]
  LC50, CL: 0.0017%

## CC(C)C(=Nc1ccc(OCC(F)(F)F)c(F)c1)OCc1cccc(Oc2ccc(Cl)cc2)c1 [Compound 429]
[1]
  LC50, HF: > 100 µg
[2]
  LC50, TBW, E (TBW-E): < 0.1%
[3]
  LC50, MW: > 0.01%
[4]
  LC50, CL: 0.0017%

## C=C(C)C(=Nc1ccc(C(F)(F)F)cc1)OCc1cccc(Oc2ccccc2)c1 [Compound 430]
[1]
  LC50, HF: < 100 µg
[2]
  LC50, TBW, E (TBW-E): 0.032%
[3]
  LC50, MW: 0.004%
[4]
  LC50, CL: 0.001%

## CC(C)C(=Nc1ccc(C(F)(F)F)c(Br)c1)OCc1ccc(F)c(Oc2ccccc2)c1 [Compound 434]
[1]
  LC50, HF: < 100 µg
[2]
  LC50, TBW, E (TBW-E): > 0.1%
[3]
  LC50, MW: 0.009%
[4]
  LC50, CL: 0.0017%

## COc1ccc(N=C(OCc2ccc(F)c(Oc3ccccc3)c2)C(C)C)cc1F [Compound 435]
[1]
  LC50, HF: < 100 µg
[2]
  LC50, TBW, E (TBW-E): 0.04%
[3]
  LC50, MW: > 0.01%
[4]
  LC50, CL: 0.002%

## CC(C)C(=Nc1cccc(OC(F)(F)F)c1)OCc1ccc(F)c(Oc2ccc(Cl)cc2)c1 [Compound 436]
[1]
  LC50, HF: < 100 µg
[2]
  LC50, TBW, E (TBW-E): < 0.1%
[3]
  LC50, MW: > 0.01%
[4]
  LC50, CL: 0.00075%

## CC(C)C(=Nc1cccc(OC(F)(F)F)c1)OCc1ccc(F)c(Oc2ccccc2)c1 [Compound 437]
[1]
  LC50, HF: < 100 µg
[2]
  LC50, TBW, E (TBW-E): 0.025%
[3]
  LC50, MW: > 0.01%
[4]
  LC50, CL: 0.00075%

## CCc1ccc(N=C(OCc2cccc(Oc3ccc(F)cc3)c2)C(C)C)cc1Cl [Compound 438]
[1]
  LC50, HF: > 100 µg
[2]
  LC50, TBW, E (TBW-E): < 0.1%
[3]
  LC50, MW: > 0.01%
[4]
  LC50, CL: 0.0009%

## CCOc1ccc(N=C(OCc2ccc(F)c(Oc3ccccc3)c2)C(C)C)cc1F [Compound 439]
[1]
  LC50, HF: > 100 µg
[2]
  LC50, TBW, E (TBW-E): > 0.1%
[3]
  LC50, MW: > 0.01%
[4]
  LC50, CL: 0.00045%

## CCCc1ccc(N=C(OCc2ccc(F)c(Oc3ccc(F)cc3)c2)C(C)C)cc1 [Compound 440]
[1]
  LC50, HF: > 100 µg
[2]
  LC50, TBW, E (TBW-E): < 0.1%
[3]
  LC50, MW: > 0.01%
[4]
  LC50, CL: 0.002%

## CC(C)C(=Nc1ccc(Cl)c(F)c1)OCc1ccc(F)c(Oc2ccc(F)cc2)c1 [Compound 441]
[1]
  LC50, HF: < 100 µg
[2]
  LC50, TBW, E (TBW-E): 0.016%
[3]
  LC50, MW: 0.006%
[4]
  LC50, CL: 0.000025%

## C=C(C)C(=Nc1ccc(C(F)(F)F)cc1)OCc1cccc(Oc2ccc(F)cc2)c1 [Compound 442]
[1]
  LC50, HF: < 100 µg
[2]
  LC50, TBW, E (TBW-E): 0.035%
[3]
  LC50, MW: > 0.01%
[4]
  LC50, CL: 0.0007%

## Fc1ccc(COC(=Nc2ccc(C(F)(F)F)cc2)C2CC2)cc1Oc1ccccc1 [Compound 443]
[1]
  LC50, HF: < 100 µg
[2]
  LC50, TBW, E (TBW-E): 0.017%
[3]
  LC50, MW: < 0.01%
[4]
  LC50, CL: 0.00015%

## Fc1ccc(COC(=Nc2ccc(C(F)(F)F)cc2)C2CC2)cc1Oc1ccc(Cl)cc1 [Compound 444]
[1]
  LC50, HF: > 100 µg
[2]
  LC50, TBW, E (TBW-E): 0.023%
[3]
  LC50, MW: > 0.01%
[4]
  LC50, CL: 0.00015%

## CC(C)C(=Nc1ccc(C(F)(F)F)cc1[N+](=O)[O-])OCc1ccc(F)c(Oc2ccccc2)c1 [Compound 445]
[1]
  LC50, HF: < 100 µg
[2]
  LC50, TBW, E (TBW-E): > 0.1%
[3]
  LC50, MW: > 0.01%
[4]
  LC50, CL: 0.00045%

## CCOc1ccc(N=C(OCc2cccc(Oc3ccc(F)cc3)c2)C(C)C)cc1Br [Compound 446]
[1]
  LC50, HF: > 100 µg
[2]
  LC50, TBW, E (TBW-E): < 0.1%
[3]
  LC50, MW: > 0.01%
[4]
  LC50, CL: 0.0008%

## CC(C)C(=Nc1ccc(F)c(I)c1)OCc1cccc(Oc2ccc(F)cc2)c1 [Compound 449]
[1]
  LC50, HF: 13 µg
[2]
  LC50, TBW, E (TBW-E): 0.025%
[3]
  LC50, MW: 0.0075%
[4]
  LC50, CL: 0.0001%

## CC(C)C(=Nc1cccc(C(F)(F)F)c1)OC(C)c1cccc(Oc2ccccc2)c1 (stereo not shown) [Compound 459]
[1]
  LC50, HF: > 100 µg
[2]
  LC50, TBW, E (TBW-E): 0.1%
[3]
  LC50, MW: > 0.01%
[4]
  LC50, CL: 0.008%

## CC(C)C(=Nc1ccc(F)c(Cl)c1)OCc1cccc(Oc2c(F)c(F)c(F)c(F)c2F)c1 [Compound 460]
[1]
  LC50, HF: > 100 µg
[2]
  LC50, TBW, E (TBW-E): > 0.1%
[3]
  LC50, MW: > 0.01%
[4]
  LC50, CL: 0.02%

## CC(C)C(=Nc1ccc(I)c(Cl)c1)OCc1cccc(Oc2ccc(Cl)cc2)n1 [Compound 471]
[1]
  LC50, HF: < 100 µg
[2]
  LC50, TBW, E (TBW-E): 0.018%
[3]
  LC50, MW: > 0.01%
[4]
  LC50, CL: 0.00018%

## CC(C)C(=Nc1cccc(C(F)(F)F)c1)OCc1cccc(Oc2ccc(Cl)cc2)n1 [Compound 477]
[1]
  LC50, HF: 20 µg
[2]
  LC50, TBW, E (TBW-E): > 0.1%
[3]
  LC50, MW: 0.0076%
[4]
  LC50, CL: 0.0003%

## CC(C)C(=Nc1ccc(Br)cc1)OCc1coc(Cc2ccccc2)c1 [Compound 478]
[1]
  LC50, HF: 15 µg
[2]
  LC50, TBW, E (TBW-E): > 0.1%
[3]
  LC50, MW: > 0.01%
[4]
  LC50, CL: 0.0037%

## CC(C)C(=Nc1cccc(C(F)(F)F)c1)OCc1coc(Cc2ccccc2)c1 [Compound 482]
[1]
  LC50, HF: 36 µg
[2]
  LC50, TBW, E (TBW-E): > 0.1%
[3]
  LC50, MW: > 0.01%
[4]
  LC50, CL: 0.01%

## CC(C)C(=Nc1ccc2c(c1)OCO2)OCc1coc(Cc2ccccc2)c1 [Compound 483]
[1]
  LC50, HF: 6 µg
[2]
  LC50, TBW, E (TBW-E): 0.05%
[3]
  LC50, MW: > 0.01%
[4]
  LC50, CL: 0.001%
